Experimental data: US6444850B1, “Fungicidial compounds having a fluorovinyloxphyenyl moiety and process for the preparation thereof” (priority 1997, dated 2002)

Tests used:
Rhizoctonia solani AG-1 = experiment: Fungicidal activity against rice sheath blight (RSB) disease; conditions: 50 ppm, control value
Botrytis cinerae = experiment: Fungicidal activity against cucumber gray mold rot (CGM) disease; format: in vivo; conditions: 50 ppm, control value
Erysiphae graminis = experiment: Fungicidal activity against barley powdery mildew (BPM) disease; format: in vivo; conditions: for C. V. (%), Fungicidal activities against TLB at 10 ppm: Table 9 (Test Example 6); for C. V. (%) BPM: 50 ppm, control value, barley powdery mildew
Puccinia recondita = experiment: Fungicidal activity against wheat leaf rust (WLR) disease; format: in vivo; conditions: for C. V. (%), Fungicidal Activities against WLB at 10 ppm: Table 8 (Test Example 5); for C. V. (%) WLR: 50 ppm, control value, wheat leaf rust
Phytophthora infestans = format: in vivo; conditions: 50 ppm; control value, tomato late blight
[1] = tested on: Pyricularia oryzae Carvara KA301; format: in vivo; conditions: for C. V. (%) RCB: 50 ppm, control value, rice blast; for C. V. (%) Fungicidal Activities against RCB at 10 ppm / C. V. (%) Fungicidal Activities against RCB at 10 ppm (TABLE 6): sprayed on Nakdong rice plant, control value from lesion area

SMILES: COC=C(C(=O)OC)c1ccccc1COc1cccc(OC(F)=C(c2ccc(C)cc2)C(F)(F)F)c1 [Compound 53]
- C. V. (%) RSB (Rhizoctonia solani AG-1): 50%
- C. V. (%) CGM (Botrytis cinerae): 55%
- C. V. (%), Fungicidal activities against TLB at 10 ppm (Erysiphae graminis): 96%
- C. V. (%) BPM (Erysiphae graminis): 100%
- C. V. (%), Fungicidal Activities against WLB at 10 ppm (Puccinia recondita): 99%
- C. V. (%) WLR (Puccinia recondita): 100%
- C. V. (%) TLB (Phytophthora infestans): 0%
- C. V. (%) RCB [1]: 100%

SMILES: COC=C(C(=O)OC)c1ccccc1COc1cccc(OC(F)=Cc2cccc(C)c2)c1 [Compound 6]
- C. V. (%) RSB (Rhizoctonia solani AG-1): 65%
- C. V. (%) CGM (Botrytis cinerae): 41%
- C. V. (%), Fungicidal activities against TLB at 10 ppm (Erysiphae graminis): 100%
- C. V. (%) BPM (Erysiphae graminis): 100%
- C. V. (%), Fungicidal Activities against WLB at 10 ppm (Puccinia recondita): 91%
- C. V. (%) WLR (Puccinia recondita): 98%
- C. V. (%) TLB (Phytophthora infestans): 86%
- C. V. (%) Fungicidal Activities against RCB at 10 ppm [1]: 96%
- C. V. (%) Fungicidal Activities against RCB at 10 ppm (TABLE 6) [1]: 96%
- C. V. (%) RCB [1]: 100%

SMILES: CON=C(C(=O)OC)c1ccccc1COc1cccc(OC(F)=Cc2cc(C)c(C)cc2C)c1 [Compound 23]
- C. V. (%) RSB (Rhizoctonia solani AG-1): 90%
- C. V. (%) CGM (Botrytis cinerae): 20%
- C. V. (%), Fungicidal activities against TLB at 10 ppm (Erysiphae graminis): 91%
- C. V. (%) BPM (Erysiphae graminis): 100%
- C. V. (%), Fungicidal Activities against WLB at 10 ppm (Puccinia recondita): 91%
- C. V. (%) WLR (Puccinia recondita): 93%
- C. V. (%) TLB (Phytophthora infestans): 10%
- C. V. (%) RCB [1]: 88%

SMILES: CNC(=O)C(=NOC)c1ccccc1COc1cccc(OC(F)=C(c2ccc(C)cc2)C(F)(F)F)c1 [Compound 56]
- C. V. (%) RSB (Rhizoctonia solani AG-1): 65%
- C. V. (%) CGM (Botrytis cinerae): 0%
- C. V. (%), Fungicidal activities against TLB at 10 ppm (Erysiphae graminis): 100%
- C. V. (%) BPM (Erysiphae graminis): 100%
- C. V. (%), Fungicidal Activities against WLB at 10 ppm (Puccinia recondita): 100%
- C. V. (%) WLR (Puccinia recondita): 100%
- C. V. (%) TLB (Phytophthora infestans): 48%
- C. V. (%) Fungicidal Activities against RCB at 10 ppm [1]: 92%
- C. V. (%) Fungicidal Activities against RCB at 10 ppm (TABLE 6) [1]: 92%
- C. V. (%) RCB [1]: 97%

SMILES: COC=C(C(=O)OC)c1ccccc1COc1cccc(OC(F)=Cc2ccc(Oc3ccccc3)cc2)c1 [Compound 32]
- C. V. (%) RSB (Rhizoctonia solani AG-1): 30%
- C. V. (%) CGM (Botrytis cinerae): 20%
- C. V. (%) BPM (Erysiphae graminis): 90%
- C. V. (%) WLR (Puccinia recondita): 88%
- C. V. (%) TLB (Phytophthora infestans): 24%
- C. V. (%) RCB [1]: 30%

SMILES: CNC(=O)C(=COC)c1ccccc1COc1cccc(OC(F)=C(c2ccc(Cl)cc2)C(F)(F)F)c1 [Compound 89]
- C. V. (%) RSB (Rhizoctonia solani AG-1): 25%
- C. V. (%) CGM (Botrytis cinerae): 22%
- C. V. (%) BPM (Erysiphae graminis): 0%
- C. V. (%) WLR (Puccinia recondita): 33%
- C. V. (%) TLB (Phytophthora infestans): 33%
- C. V. (%) RCB [1]: 0%

SMILES: CON=C(C(=O)OC)c1ccccc1COc1cccc(OC(F)=Cc2ccc(C)cc2)c1 [Compound 12]
- C. V. (%) RSB (Rhizoctonia solani AG-1): 80%
- C. V. (%) CGM (Botrytis cinerae): 27%
- C. V. (%), Fungicidal activities against TLB at 10 ppm (Erysiphae graminis): 96%
- C. V. (%) BPM (Erysiphae graminis): 94%
- C. V. (%), Fungicidal Activities against WLB at 10 ppm (Puccinia recondita): 97%
- C. V. (%) WLR (Puccinia recondita): 93%
- C. V. (%) TLB (Phytophthora infestans): 84%
- C. V. (%) RCB [1]: 100%

SMILES: COC=C(C(=O)OC)c1ccccc1COc1cccc(OC(F)=C(c2cccc(F)c2)C(F)(F)F)c1 [Compound 92]
- C. V. (%) RSB (Rhizoctonia solani AG-1): 55%
- C. V. (%) CGM (Botrytis cinerae): 16%
- C. V. (%), Fungicidal activities against TLB at 10 ppm (Erysiphae graminis): 99%
- C. V. (%) BPM (Erysiphae graminis): 100%
- C. V. (%), Fungicidal Activities against WLB at 10 ppm (Puccinia recondita): 100%
- C. V. (%) WLR (Puccinia recondita): 100%
- C. V. (%) TLB (Phytophthora infestans): 81%
- C. V. (%) RCB [1]: 93%

SMILES: COC(=O)C(=CSC)c1ccccc1COc1cccc(OC(F)=Cc2cc(C)c(C)cc2C)c1 [Compound 24]
- C. V. (%) RSB (Rhizoctonia solani AG-1): 46%
- C. V. (%) CGM (Botrytis cinerae): 27%
- C. V. (%) BPM (Erysiphae graminis): 96%
- C. V. (%) WLR (Puccinia recondita): 98%
- C. V. (%) TLB (Phytophthora infestans): 18%
- C. V. (%) RCB [1]: 62%

SMILES: CNC(=O)C(=COC)c1ccccc1COc1cccc(OC(F)=Cc2ccc(C)cc2)c1 [Compound 11]
- C. V. (%) RSB (Rhizoctonia solani AG-1): 5%
- C. V. (%) CGM (Botrytis cinerae): 15%
- C. V. (%) BPM (Erysiphae graminis): 25%
- C. V. (%) WLR (Puccinia recondita): 43%
- C. V. (%) TLB (Phytophthora infestans): 20%
- C. V. (%) RCB [1]: 16%

SMILES: CNC(=O)C(=COC)c1ccccc1COc1cccc(OC(F)=Cc2cccc(OC)c2)c1 [Compound 26]
- C. V. (%) RSB (Rhizoctonia solani AG-1): 35%
- C. V. (%) CGM (Botrytis cinerae): 0%
- C. V. (%) BPM (Erysiphae graminis): 88%
- C. V. (%) WLR (Puccinia recondita): 70%
- C. V. (%) TLB (Phytophthora infestans): 55%
- C. V. (%) RCB [1]: 20%

SMILES: COC=C(C(=O)OC)c1ccccc1COc1cccc(OC(F)=C(c2cc(Cl)cc(Cl)c2)C(F)(F)F)c1 [Compound 102]
- C. V. (%) RSB (Rhizoctonia solani AG-1): 45%
- C. V. (%) CGM (Botrytis cinerae): 0%
- C. V. (%), Fungicidal activities against TLB at 10 ppm (Erysiphae graminis): 98%
- C. V. (%) BPM (Erysiphae graminis): 100%
- C. V. (%) WLR (Puccinia recondita): 96%
- C. V. (%) TLB (Phytophthora infestans): 3%
- C. V. (%) RCB [1]: 0%

SMILES: CON=C(C(=O)OC)c1ccccc1COc1cccc(OC(F)=C(c2cccc(F)c2)C(F)(F)F)c1 [Compound 94]
- C. V. (%) RSB (Rhizoctonia solani AG-1): 60%
- C. V. (%) CGM (Botrytis cinerae): 0%
- C. V. (%), Fungicidal activities against TLB at 10 ppm (Erysiphae graminis): 99%
- C. V. (%) BPM (Erysiphae graminis): 100%
- C. V. (%), Fungicidal Activities against WLB at 10 ppm (Puccinia recondita): 95%
- C. V. (%) WLR (Puccinia recondita): 100%
- C. V. (%) TLB (Phytophthora infestans): 40%
- C. V. (%) RCB [1]: 41%

SMILES: CNC(=O)C(=COC)c1ccccc1COc1cccc(OC(F)=Cc2cc(C)c(C)cc2C)c1 [Compound 22]
- C. V. (%) RSB (Rhizoctonia solani AG-1): 26%
- C. V. (%) CGM (Botrytis cinerae): 0%
- C. V. (%) BPM (Erysiphae graminis): 0%
- C. V. (%) WLR (Puccinia recondita): 0%
- C. V. (%) TLB (Phytophthora infestans): 25%
- C. V. (%) RCB [1]: 0%

SMILES: CON=C(C(=O)OC)c1ccccc1COc1cccc(OC(F)=Cc2cccc(OC)c2)c1 [Compound 27]
- C. V. (%) RSB (Rhizoctonia solani AG-1): 90%
- C. V. (%) CGM (Botrytis cinerae): 0%
- C. V. (%), Fungicidal activities against TLB at 10 ppm (Erysiphae graminis): 97%
- C. V. (%) BPM (Erysiphae graminis): 96%
- C. V. (%) WLR (Puccinia recondita): 86%
- C. V. (%) TLB (Phytophthora infestans): 80%
- C. V. (%) RCB [1]: 100%

SMILES: CON=C(C(=O)OC)c1ccccc1COc1cccc(OC(F)=Cc2cc(C)cc(C)c2)c1 [Compound 19]
- C. V. (%) RSB (Rhizoctonia solani AG-1): 90%
- C. V. (%) CGM (Botrytis cinerae): 0%
- C. V. (%) BPM (Erysiphae graminis): 98%
- C. V. (%) WLR (Puccinia recondita): 100%
- C. V. (%) TLB (Phytophthora infestans): 33%
- C. V. (%) RCB [1]: 100%

SMILES: CNC(=O)C(=COC)c1ccccc1COc1cccc(OC(F)=C(c2cccc(F)c2)C(F)(F)F)c1 [Compound 93]
- C. V. (%) RSB (Rhizoctonia solani AG-1): 5%
- C. V. (%) CGM (Botrytis cinerae): 0%
- C. V. (%) BPM (Erysiphae graminis): 0%
- C. V. (%) WLR (Puccinia recondita): 73%
- C. V. (%) TLB (Phytophthora infestans): 0%
- C. V. (%) RCB [1]: 0%

SMILES: CNC(=O)C(=COC)c1ccccc1COc1cccc(OC(F)=Cc2cccc(F)c2)c1 [Compound 35]
- C. V. (%) RSB (Rhizoctonia solani AG-1): 30%
- C. V. (%) CGM (Botrytis cinerae): 35%
- C. V. (%) BPM (Erysiphae graminis): 58%
- C. V. (%) WLR (Puccinia recondita): 40%
- C. V. (%) TLB (Phytophthora infestans): 35%
- C. V. (%) RCB [1]: 15%

SMILES: CNC(=O)C(=COC)c1ccccc1COc1cccc(OC(F)=Cc2ccc(Cl)cc2)c1 [Compound 38]
- C. V. (%) RSB (Rhizoctonia solani AG-1): 5%
- C. V. (%) CGM (Botrytis cinerae): 15%
- C. V. (%) BPM (Erysiphae graminis): 8%
- C. V. (%) WLR (Puccinia recondita): 0%
- C. V. (%) TLB (Phytophthora infestans): 33%
- C. V. (%) RCB [1]: 33%

SMILES: COC=C(C(=O)OC)c1ccccc1COc1cccc(OC(F)=Cc2ccc(Cl)cc2)c1 [Compound 37]
- C. V. (%) RSB (Rhizoctonia solani AG-1): 45%
- C. V. (%) CGM (Botrytis cinerae): 58%
- C. V. (%), Fungicidal activities against TLB at 10 ppm (Erysiphae graminis): 100%
- C. V. (%) BPM (Erysiphae graminis): 98%
- C. V. (%), Fungicidal Activities against WLB at 10 ppm (Puccinia recondita): 97%
- C. V. (%) WLR (Puccinia recondita): 98%
- C. V. (%) TLB (Phytophthora infestans): 93%
- C. V. (%) Fungicidal Activities against RCB at 10 ppm [1]: 100%
- C. V. (%) Fungicidal Activities against RCB at 10 ppm (TABLE 6) [1]: 100%
- C. V. (%) RCB [1]: 95%

SMILES: COC=C(C(=O)OC)c1ccccc1COc1cccc(OC(F)=C(c2cccc(C(F)(F)F)c2)C(F)(F)F)c1 [Compound 83]
- C. V. (%) RSB (Rhizoctonia solani AG-1): 50%
- C. V. (%) CGM (Botrytis cinerae): 0%
- C. V. (%), Fungicidal activities against TLB at 10 ppm (Erysiphae graminis): 100%
- C. V. (%) BPM (Erysiphae graminis): 100%
- C. V. (%), Fungicidal Activities against WLB at 10 ppm (Puccinia recondita): 94%
- C. V. (%) WLR (Puccinia recondita): 100%
- C. V. (%) TLB (Phytophthora infestans): 11%
- C. V. (%) RCB [1]: 25%

SMILES: CCc1ccc(C(=C(F)Oc2cccc(OCc3ccccc3C(=NOC)C(=O)NC)c2)C(F)(F)F)cc1 [Compound 61]
- C. V. (%) RSB (Rhizoctonia solani AG-1): 50%
- C. V. (%) CGM (Botrytis cinerae): 5%
- C. V. (%), Fungicidal activities against TLB at 10 ppm (Erysiphae graminis): 100%
- C. V. (%) BPM (Erysiphae graminis): 100%
- C. V. (%), Fungicidal Activities against WLB at 10 ppm (Puccinia recondita): 100%
- C. V. (%) WLR (Puccinia recondita): 100%
- C. V. (%) TLB (Phytophthora infestans): 64%
- C. V. (%) Fungicidal Activities against RCB at 10 ppm [1]: 96%
- C. V. (%) Fungicidal Activities against RCB at 10 ppm (TABLE 6) [1]: 96%
- C. V. (%) RCB [1]: 100%
